Measurements reported in US20110150769A1, “IDENTIFICATION AND USE OF COMPOUNDS FOR TREATING PERSISTENT PAIN” (priority 2009, published 2011).
Entries after “also recorded” stand apart in the source; their conditions may differ.

How the values were obtained:
[1] = system: DRG neurons; test: Calcium imaging of cultured DRG neurons; assay type: cell-based, mouse
Method: Calcium Imaging of Cultured Dorsal Root Ganglia (DRG) Neurons
DRG neurons were plated on poly-D-lysine/laminin-coated coverslips and cultured for 24 hours. […] Briefly, neurons were loaded with Fura 2-acetomethoxy ester (Molecular Probes) for 30 min in dark at room temperature. After washing, neurons were imaged at 340/380 nm excitation to detect intracellular free calcium. All tests were performed with an experimenter blinded to the genotype.

[2] = system: CFA-induced thermal hyperalgesia in mice; test: CFA-induced heat hyperalgesia (Hargreaves test) after intrathecal injection; assay type: in vivo, mouse
Method: All behavioral tests were performed with an experimenter blinded to the genotype. The mice used in the tests were backcrossed to C57BI/6 mice for at least five generations and were 2 to 3 month-old males (20-30 g).
CFA-induced heat hyperalgesia: the intraplantar region of one hind paw of each mouse was injected with 6 μl of 50% CFA solution or 10 μl of 1% carrageneen solution in saline. Thermal pain sensitivity was assessed by recording paw withdrawal latencies on exposure to a defined radiant heat stimulus (Hargreaves test) before CFA injection and 30 min after injection.
(§1) BAM 8-22 was purchased from Tocris (Bristol, UK) and was suspended in 0.9% saline. The drug was injected intrathecally under brief isoflurane (1.5%) anesthesia to reduce stress. A 30-gauge, 0.5-inch needle connected to a 10-μl syringe was inserted into one side of the L5 or L6 spinous process at an angle of approximately 20° above the vertebral column and slipped into the groove between the spinous and transverse processes. The needle was moved carefully forward to the intervertebral space.
The ability of BAM 8-22 to modulate persistent inflammatory pain was determined by examining enhanced pain sensitivity to a noxious heat stimulus, as monitored by the Hargreaves test 24 hours after intra-plantar injection of CFA (6 μl, 50%) into one hind paw. […] In WT mice, a single intrathecal injection of BAM 8-22 (1 mM, 5 μl) was able to alleviate thermal hyperalgesia at 30 min post-injection, increasing the PWL by 1.9-fold compared to pre-drug baseline (FIG. 6A, WT, n=13, ipsilateral paw).

[3] = system: acute thermal nociception in mice; test: Tail immersion test (50° C.) after intrathecal injection; assay type: in vivo, mouse; conditions: naive WT and Mrgpr-clusterΔ−/− mice, 1 mM, 5 μl i.th.
Method: Tail immersion test: mice were gently restrained in a 50-ml conical tube that the mice voluntarily entered. The protruding one third of the tail was then dipped into a 50° C. water bath. Latency to respond to the heat stimulus with vigorous flexion of the tail was measured three times and averaged.
as §1
To determine whether intrathecal BAM 8-22 also affected acute thermal nociception, tail-immersion tests in naïve WT and Mrgpr-clusterΔ^−/− mice were performed.

[4] = system: chronic constriction injury model of neuropathic pain in mice; test: CCI-induced mechanical allodynia (von Frey test) after intrathecal injection; assay type: in vivo, mouse; conditions: 0.5 mM, 5 μl i.th.
Description: A chronic constriction injury (CCI) at the left sciatic nerve was induced in adult male mice. Inhalation anesthesia was induced with a constant level of isoflurane (2.0%) delivered through a nose cone. Under aseptic conditions, the left sciatic nerve at the middle thigh level was separated from the surrounding tissue and loosely tied with three nylon sutures (9-0 nonabsorbable-monofilament, S&T AG, Neuhausen, Switzerland). The distance between two adjacent ligatures was around 0.5 mm.
CCI-induced mechanical allodynia: mechanical sensitivity was assessed with the von Frey test using the frequency method. Two calibrated von Frey monofilaments (low force: 0.07 g and high force: 0.45 g) were used. Each von Frey filament was applied perpendicularly to the plantar side of each hind paw for approximately 1 sec; the stimulation was repeated 10 times to both hind paws. The occurrence of paw withdrawal in each of these 10 trials was expressed as a percent response frequency: paw withdrawal frequency (PWF)=(number of paw withdrawals/10 trials)×100%.
BAM 8-22 was purchased from Tocris (Bristol, UK) and was suspended in 0.9% saline. The drug was injected intrathecally under brief isoflurane (1.5%) anesthesia to reduce stress. […]

[5] = system: awake mice; test: Spontaneous pain responses after intrathecal injection in awake mice; assay type: in vivo, mouse; conditions: awake WT and Mrgpr-clusterΔ−/− mice
Method: as §1
Intrathecal injection of BAM 8-22 in awake mice elicited short-term (less than 10 min) spontaneous pain responses.

[6] = biological target: T1, mouse MrgprC11 (Mus musculus, UniProt Q8CIP3); conditions: Han et al, 2002, Lembo et al.; cited from earlier work
T1 sequence (Q8CIP3 1-322): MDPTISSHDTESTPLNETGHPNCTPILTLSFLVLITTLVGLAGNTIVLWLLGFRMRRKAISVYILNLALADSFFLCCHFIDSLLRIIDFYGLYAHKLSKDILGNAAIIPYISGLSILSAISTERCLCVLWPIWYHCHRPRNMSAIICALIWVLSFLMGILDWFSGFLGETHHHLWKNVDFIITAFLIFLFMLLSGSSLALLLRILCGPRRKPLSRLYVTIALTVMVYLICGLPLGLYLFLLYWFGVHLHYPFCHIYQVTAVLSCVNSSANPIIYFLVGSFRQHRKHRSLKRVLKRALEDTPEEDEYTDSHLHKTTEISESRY

[7] = biological target: human MrgprX1 (Homo sapiens, UniProt Q96LB2); conditions: literature; cited from earlier work
[8] = system: opioid receptors; conditions: literature; cited from earlier work

human MrgprX1, sequence (Q96LB2 whole entry): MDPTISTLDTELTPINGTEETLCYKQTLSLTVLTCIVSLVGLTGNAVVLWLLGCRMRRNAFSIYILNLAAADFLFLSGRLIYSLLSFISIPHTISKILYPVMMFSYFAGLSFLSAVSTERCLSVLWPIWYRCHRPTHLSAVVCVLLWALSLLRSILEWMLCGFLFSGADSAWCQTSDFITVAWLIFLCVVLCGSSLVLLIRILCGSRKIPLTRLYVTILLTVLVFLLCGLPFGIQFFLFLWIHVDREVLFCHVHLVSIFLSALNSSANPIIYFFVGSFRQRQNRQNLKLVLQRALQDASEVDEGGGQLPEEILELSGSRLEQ

Substance: BAM 8-22
- responses in DRG neurons ([1]; adult mutant (Mrgpr-clusterΔ−/−) DRG neurons): no responses
- percentage of DRG neurons responding, WT vs MrgprA1GFP/GFP mice ([1]; comparison of WT and MrgprA1GFP/GFP mice): did not differ significantly
- responses in DRG neurons ([1]; newborn Mrgpr-clusterΔ−/− mice): few or no responses
- anti-hyperalgesic effect, ipsilateral hind paw ([2]; Mrgpr-clusterΔ−/− mice, 1 mM, 5 μl i.th., 24 h after CFA): not observed
- sensitivity to acute radiant heat (Hargreaves test) ([2]; WT and Mrgpr-clusterΔ−/− mice, contralateral hind paw): did not significantly change
- thermal hyperalgesia of the ipsilateral hind paw ([2]; WT mice, 1 mM, 5 μl i.th., 24 h after CFA): significantly alleviated
- increase of paw withdrawal latency (PWL) compared to pre-drug baseline ([2]; WT mice, ipsilateral paw, 1 mM, 5 μl i.th., 30 min post-injection, 24 h after CFA): 1.9 fold
- PWL of the contralateral (control side) hind paw ([2]; either group (WT, Mrgpr-clusterΔ−/−), 1 mM, 5 μl i.th.): did not significantly affect
- tail flick latency vs pre-drug [3]: not significantly different; also recorded: did not significantly change
- CCI-induced mechanical pain hypersensitivity (paw withdrawal frequency), ipsilateral hind paw ([4]; WT mice, low-force 0.07 g and high-force 0.45 g, 14-18 days post-injury, after 30 min): significantly attenuated; also recorded: significantly reduced
- paw withdrawal responses (PWF) of the contralateral, uninjured side ([4]; either group): did not significantly change; also recorded: did not significantly reduce
- duration of spontaneous pain responses elicited by intrathecal injection [5]: less than 10 min
- activation of mouse MrgprC11 [6]: specifically activates
- activation of human MrgprX1 [7]: specifically activates
- activation of opioid receptors [8]: but not opioid receptors
